This passage reports viability, T/C and IC50 results from PubChem BioAssay AID1963833 (Molecular Pharmacology Branch, DTP, NCI, 2024).

Usually viability, T/C stands for the result in the treated group divided by that in the control group, in per cent. In general, IC50 refers to the concentration that gives 50% inhibition.

Where “and” joins values, the source holds several entries; their conditions need not be identical. Equal entries are not always repeated.

This test has as its system 883617-216-R-J1-PDC complex spheroid viability. The test is described as follows: Anticancer human tumor 883617-216-R-J1-PDC patient-derived bladder carcinoma cell line growth inhibition [POLQ]. As to conditions: for viability, T/C: stronger effect = lower value. The method, then:
Multicellular complex tumor spheroid response to Polymerase (POL) inhibitors (novobiocin, ART-558, RP6685) in combination with a variety of drugs and investigational agents in selected tumor cell lines
The POL inhibitors (novobiocin, ART-558, and RP6685) were evaluated both individually and in combination with standard of care and investigational anticancer small molecules within a complex spheroid model of solid tumors. . Complex spheroids include a stromal component modeled by human endothelial cells (HUVEC) and fibroblasts modeled by human mesenchymal stem cells (MSCs). The concentration ranges selected for each drug and investigational agent were based upon clinically achievable concentrations if the clinical Cmax of the agent was known.
Compounds. The drugs and investigational agents: novobiocin (NSC847541), ART-558 (NSC835418), RP-6685 (NSC848927), peposertib (NSC802822), ceralasertib (NSC780249), elimusertib (NSC800525), camonsertib (NSC841442), AZD-1390 (NSC803789), olaparib (NSC753686), talazoparib (NSC767125), rucaparib (NSC756644), sotorasib (NSC818433), MRTX-1133 (NSC836407), SN-38 (NSC673596), topotecan (NSC609699), epotoside (NSC141540), doxorubicin (NSC123127), gemcitabine (NSC613327), 5-fluorouracil (NSC19893), paclitaxel (NSC125973), vemurafenib (NSC761431), MSA-2 (NSC828583), SN-011 (NSC837082), adavosertib (NSC754352), prexasertib (NSC758257), carboplatin (NSC241240) and oxaliplatin (NSC266046), were obtained from the National Cancer Institute (NCI) Developmental Therapeutics Program Chemical Repository (21). The FDA-approved anticancer drug set is available from the Developmental Therapeutics Program at https://dtp.cancer.gov/organization/dscb/obtaining/. […] The stock solutions were prepared in dimethyl sulfoxide (DMSO, Sigma-Aldrich, St. Louis, MO, cat. D2650), except for the platinum compounds which were prepared in saline (Quality Biological, Gaithersburg, MD, cat. 114-055-101), at 800-fold the tested concentration and stored at -70 degrees C prior to their use. All drugs and investigational agents were tested over a range starting from a high concentration at or near the clinical Cmax and decreasing in half-log increments. If the clinical Cmax for an agent had not been determined, the highest concentration tested was 10 microM, except for SN-38, which was tested at a high concentration of 1 microM.
Cell Culture. All cells were maintained in an incubator at 37 degrees C and 5% CO2 with 95% humidity. The PDC lines were cultured according to standard operating procedures established by the NCI PDMR (https://pdmr.cancer.gov). Table 3 of the manuscript, lists the cell lines along with the number of the three cell types plated to form the mct-spheroids and media for tumor cell growth. After thawing, all PDC lines, except 997537-175-T-J1-PDC and 415267-285-R-J2-PDC, were cultured in Matrigel-coated flasks prepared with a working solution of 1X Ham's F-12 nutrient mix, without supplementation (Thermo Fisher Scientific, cat. 11765054), 100 U/mL penicillin-streptomycin (Thermo Fisher Scientific, cat. 15140122), and 2.5% Matrigel (Corning Inc., Corning, NY, cat. 354248) for the first three passages. The two PDC lines 997537-175-T-J1-PDC and 415267-285-R-J2-PDC were cultured on uncoated flasks. The 857933-349-R-J2-PDC line was cultured in 6C/Colon 1B media containing advanced DMEM/F-12 (Thermo Fisher Scientific, cat. 12634028), 10 mM HEPES (Thermo Fisher Scientific, cat. 15630080), 1X GlutaMAX supplement (Thermo Fisher Scientific, cat. 35050061), 0.1 mg/mL primocin (InvivoGen, San Diego, CA, cat. ant-pm-2), 10% defined fetal bovine serum, heat inactivated (HyClone Laboratories Inc., Logan, UT, cat. SH30070.03HI), 50% L-WRN conditioned media (ATCC, cat. CRL-3276), 1.25 mM N-Acetyl-L-cysteine (Sigma-Aldrich, cat. A9165), 10 mM nicotinamide (Sigma-Aldrich, cat. N0636), 1X B-27 supplement (Thermo Fisher Scientific, cat. 17504044), 1X N-2 supplement (Thermo Fisher Scientific, cat. […]

Where [1] appears, read: curve of first compound, second compound 0.0316 µM.
Where [2] appears, read: curve of first compound, second compound 0.1 µM.
Where [3] appears, read: curve of first compound, second compound 0.316 µM.
The mark [4] stands for this setting: curve of first compound, second compound 1 µM.
Setting [5] is: curve of first compound, second compound 3.16 µM.
The mark [6] stands for this setting: curve of first compound, second compound 10 µM.
Setting [7] is: second compound 0.0316 µM, first compound 0.0316 µM.
The mark [8] stands for this setting: second compound 0.0316 µM, first compound 0.1 µM.
Where [9] appears, read: second compound 0.0316 µM, first compound 0.316 µM.
Where [10] appears, read: second compound 0.0316 µM, first compound 1 µM.
The mark [11] stands for this setting: second compound 0.0316 µM, first compound 3.16 µM.
[12] abbreviates: second compound 0.0316 µM, first compound 10 µM.
[13] abbreviates: second compound 0.1 µM, first compound 0.0316 µM.
[14] abbreviates: second compound 0.1 µM, first compound 0.1 µM.
Setting [15] is: second compound 0.1 µM, first compound 0.316 µM.
[16] abbreviates: second compound 0.1 µM, first compound 1 µM.
Setting [17] is: second compound 0.1 µM, first compound 3.16 µM.
Setting [18] is: second compound 0.1 µM, first compound 10 µM.
Where [19] appears, read: second compound 0.316 µM, first compound 0.0316 µM.
[20] abbreviates: second compound 0.316 µM, first compound 0.1 µM.
The mark [21] stands for this setting: second compound 0.316 µM, first compound 0.316 µM.
Setting [22] is: second compound 0.316 µM, first compound 1 µM.
Where [23] appears, read: second compound 0.316 µM, first compound 3.16 µM.
Setting [24] is: second compound 0.316 µM, first compound 10 µM.
[25] abbreviates: second compound 1 µM, first compound 0.0316 µM.
[26] abbreviates: second compound 1 µM, first compound 0.1 µM.
[27] abbreviates: second compound 1 µM, first compound 0.316 µM.
Where [28] appears, read: second compound 1 µM, first compound 1 µM.
The mark [29] stands for this setting: second compound 1 µM, first compound 3.16 µM.
[30] abbreviates: second compound 1 µM, first compound 10 µM.
Where [31] appears, read: second compound 3.16 µM, first compound 0.0316 µM.
[32] abbreviates: second compound 3.16 µM, first compound 0.1 µM.
[33] abbreviates: second compound 3.16 µM, first compound 0.316 µM.
[34] abbreviates: second compound 3.16 µM, first compound 1 µM.
[35] abbreviates: second compound 3.16 µM, first compound 3.16 µM.
Where [36] appears, read: second compound 3.16 µM, first compound 10 µM.
Setting [37] is: second compound 10 µM, first compound 0.0316 µM.
The mark [38] stands for this setting: second compound 10 µM, first compound 0.1 µM.
Setting [39] is: second compound 10 µM, first compound 0.316 µM.
The mark [40] stands for this setting: second compound 10 µM, first compound 1 µM.
[41] abbreviates: second compound 10 µM, first compound 3.16 µM.
Where [42] appears, read: second compound 10 µM, first compound 10 µM.
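Further: spheroids exposed to compounds for seven days before readout.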

In the case of `COc1ccc([C@@H](O)c2cc(-c3ncnc4cc(N5CCOCC5)ccc34)c(F)cc2Cl)nn1`, the viability, T/C runs as follows: (compound 0.0316 µM) 99% and 86.7% and 96.3%; (compound 0.1 µM) 73% and 81.7% and 93.3%; (compound 0.316 µM) 81.5% and 83.3% and 94%; (compound 1 µM) 62.8% and 61.7% and 69%; (compound 3.16 µM) 48.3% and 47.9% and 48.8%; (compound 10 µM) 30.1% and 35.8% and 31.2%. Moreover, where the note is “curve of compound”, the IC50 is 2610 nM and 2430 nM and 2720 nM.

Turning to `CC1COCCN1c1cc(C2(S(C)(=N)=O)CC2)nc(-c2ccnc3[nH]ccc23)n1` (configuration not stated) + COC1C(OC(N)=O)C(O)C(Oc2ccc3c(O)c(NC(=O)c4ccc(O)c(CC=C(C)C)c4)c(=O)oc3c2C)OC1(C)C, the IC50 runs as follows: under setting [1], 2630 nM; under setting [2], 2110 nM; under setting [3], 2530 nM; under setting [4], 3630 nM; under setting [5], 1830 nM; under setting [6], 2950 nM. For the same molecule, the viability, T/C by setting is: under setting [7], 89%; under setting [8], 101%; under setting [9], 84.5%; under setting [10], 83.5%; under setting [11], 43.5%; under setting [12], 31.2%. Besides, the viability, T/C by setting is: under setting [13], 91.1%; under setting [14], 91.5%; under setting [15], 87.3%; under setting [16], 69.1%; under setting [17], 39.1%; under setting [18], 37.1%. Further, the viability, T/C under setting [19] is 99.4%; the viability, T/C under setting [20] is 89.6%; the viability, T/C under setting [21] was 82.7%; the viability, T/C under setting [22] was 67.8%; the viability, T/C under setting [23] is 42.7%; the viability, T/C under setting [24] was 38.7%. Moreover, the viability, T/C under setting [25] was 102%; the viability, T/C under setting [26] was 84.8%; the viability, T/C under setting [27] was 91.2%; the viability, T/C under setting [28] was 70.8%; the viability, T/C under setting [29] was 51.9%; the viability, T/C under setting [30] was 31.3%. For the same molecule, the viability, T/C by setting is: under setting [31], 88.3%; under setting [32], 97.3%; under setting [33], 97.1%; under setting [34], 61.8%; under setting [35], 45.7%; under setting [36], 32.6%. Further, the viability, T/C is, setting by setting: under setting [37], 85.1%; under setting [38], 82.4%; under setting [39], 89.9%; under setting [40], 65%; under setting [41], 52.5%; under setting [42], 40.5%.

As for `Nc1ccc(C#CCN(C(=O)Cc2ncc(C(F)(F)F)cc2C(F)(F)F)c2ccc(F)cc2)nn1`, the viability, T/C was 102% [middle of 13 runs] (compound 0.0316 µM); 98% [middle of 13 runs] (compound 0.1 µM); 102% [middle of 13 runs] (compound 0.316 µM); 99.9% [middle of 13 runs] (compound 1 µM); 104% [middle of 13 runs] (compound 3.16 µM); 112% [middle of 13 runs] (compound 10 µM). The IC50 (compound alone, run of 01/19/2024) is above 10000 nM.

Turning to `COc1cccc2c1C(=O)c1c(O)c3c(c(O)c1C2=O)CC(O)(C(=O)CO)CC3OC1CC(N)C(O)C(C)O1` (configuration not stated), the viability, T/C is 61.8% and 66.7% and 64% (compound 0.0316 µM); 56.7% and 69.8% and 55.9% (compound 0.1 µM); 51.5% and 57.7% and 47.7% (compound 0.316 µM); 10.3% and 22.2% and 5.53% (compound 1 µM); 0.4% and 0.3% and 0.29% (compound 3.16 µM); 0.27% and 0.25% and 0.3% (compound 10 µM). Besides, where the note is “curve of compound”, the IC50 is 328 nM and 412 nM and 248 nM.

On to `CCc1cc2c(N3CCc4c(cc(Cn5ccnc5)cc4-c4cn(C)nc4C(F)(F)F)C3=O)ccnc2c(OC)n1`, for which the viability, T/C is 105% and 80.5% and 91.8% (compound 0.0316 µM); 94% and 89.7% and 94.5% (compound 0.1 µM); 102% and 76.2% and 108% (compound 0.316 µM); 107% and 92.5% and 85.3% (compound 1 µM); 80.3% and 74.5% and 92% (compound 3.16 µM); 51% and 47.2% and 50.3% (compound 10 µM). Besides, the IC50 (curve of compound) is > 10000 nM and 8890 nM.

Take `COc1cccc2c1C(=O)c1c(O)c3c(c(O)c1C2=O)CC(O)(C(=O)CO)CC3OC1CC(N)C(O)C(C)O1` (configuration not stated) + COC1C(OC(N)=O)C(O)C(Oc2ccc3c(O)c(NC(=O)c4ccc(O)c(CC=C(C)C)c4)c(=O)oc3c2C)OC1(C)C: the IC50 stood at 186 nM under setting [1]; 320 nM under setting [2]; 251 nM under setting [3]; 214 nM under setting [4]; 308 nM under setting [5]; 151 nM under setting [6]. Also, the viability, T/C under setting [7] was 62.3%; the viability, T/C under setting [8] was 49.8%; the viability, T/C under setting [9] was 45.3%; the viability, T/C under setting [10] is 4.36%; the viability, T/C under setting [11] was 0.76%; the viability, T/C under setting [12] is 0.26%. Further, the viability, T/C is 67.3% under setting [13]; 59.6% under setting [14]; 50.8% under setting [15]; 6% under setting [16]; 0.55% under setting [17]; 0.43% under setting [18]. Further, the viability, T/C was 70.4% under setting [19]; 58.2% under setting [20]; 47.5% under setting [21]; 6.74% under setting [22]; 1.39% under setting [23]; 1.91% under setting [24]. The viability, T/C is 73.9% under setting [25]; 55% under setting [26]; 45% under setting [27]; 3.27% under setting [28]; 0.35% under setting [29]; 1.2% under setting [30]. Also, the viability, T/C is 61.1% under setting [31]; 48.6% under setting [32]; 50% under setting [33]; 4.18% under setting [34]; 1.17% under setting [35]; 0.37% under setting [36]. The viability, T/C is 59.5% under setting [37]; 50.9% under setting [38]; 41.5% under setting [39]; 5% under setting [40]; 0.8% under setting [41]; 0.3% under setting [42].
